Experimental data taken from ChEMBL document CHEMBL1147386, “Pantherinine, a cytotoxic aromatic alkaloid, and 7-deazainosine from the ascidian Aplidium pantherinum” (1993).
≈ marks a conversion by molar mass, not a printed value.

Test system: P388
Test: Cytotoxicity against mouse P388 cells
Format: functional

| SMILES | EC50 (read-out: ED50 (the source's name)) | Activity |
| --- | --- | --- |
| NC1=Cc2nc3ccc(Br)cc3c3ccnc(c23)C1=O [PANTHERININE] | 4.5 µg/mL (≈ 13.8 µM) |  |
| Nc1ncnc2c1ccn2[C@@H]1O[C@H](CO)[C@@H](O)[C@H]1O |  | Toxic |
